Measured values published in patent publication US11639355B2, “Substituted pyrrolo[3,4-d]imidazoles as MDM2-p53 inhibitors” (LUOXIN PHARMACEUTICAL (SHANGHAI) CO., LTD., priority 2018, dated 2023).
Read-outs that look alike come from different tables or passages of the source.

How the values were obtained:
[1] = Pharmacokinetic study in mice, tail vein injection and oral cassette dosing; assay type: in vivo; conditions: mouse, plasma, female Balb/c mice
Procedure: The purposes of the present disclosure are to study the pharmacokinetic behaviors of the compounds of the present disclosure in mice and to evaluate the pharmacokinetic characteristics thereof.
Healthy juvenile female Balb/c mice by weight of 20-30 g, 6 in total.
There were 6 female Balb/c mice, with after fasting overnight 3 mice administered a dose of 0.5 mg/kg via tail vein injection; the other 3 mice administered orally a dose of 2 mg/kg.
Blood was collected before administration and 0.08, 0.25, 0.5, 1, 2, 4, 8, and 24 hours after administration, placed in a heparinized anticoagulation tube, and centrifuged at 7000 rpm (5204 g) at 4° C., and the plasma was separated and stored at −80° C. 4 hours after administration, the mice were fed.
The LC/MS/MS method was used to determine the content of the compounds to be tested in mouse plasma after iv and oral administration. Plasma samples were analyzed after pretreatment of protein precipitation.

MV4-11 tumor cells = experiment: Efficacy in mice with subcutaneously transplanted MV4-11 acute myeloid leukemia tumor; assay type: in vivo; conditions: 6 mg/kg oral once a day
Procedure: 0.2 mL (10×10^6 cells, containing 50% Matrigel) of MV4-11 tumor cells were inoculated subcutaneously on the right back of each mouse to form a transplanted tumor; when the volume reached 100-200 mm^3, the animals were randomly grouped according to the tumor volume, with 8 in the negative control group, 8 in the positive control group, and 8 in the experimental group. […] The length (A) and width (B) of the tumor were measured with a vernier caliper twice a week, thereby calculating the tumor volume V=A×B^2/2. The calculation of relative tumor volume (RTV) follows: RTV=Vt/V0, where Vt is the tumor volume at the end of the administration, and V0 is the tumor volume measured before division into different cages for administration. The pharmacodynamic evaluation index of the anti-tumor activity is the relative tumor proliferation ratio T/C (%), and the calculation formula is: T/C (%)=TRTV/CRTV×100%. Where TRTV is the RTV of the treatment group; CRTV is the RTV of the negative control group. Efficacy evaluation criteria: T/C %>60% is invalid; T/C %≤60% and P<0.05 upon statistical treatment is valid.
CVt is the tumor volume of the control group at the end of the administration; CV0 is the tumor volume of the control group before division into different cages for administration; TVt is the tumor volume of the dosing group at the end of the administration; TV0 is the tumor volume of the dosing group before division into different cages for administration. The difference in tumor volumes between the dosing group and the control group was subjected to t-test. At the same time, the nude mice of each group were weighed twice a week to preliminarily evaluate the side effects of the drugs.

[2] = reported data; cited from earlier work
[3] = reported data; cited from earlier work; remark: listed apart in the source
P-glycoprotein (MDR1) = experiment: Two-way permeability evaluation in MDR1-MDCK cells; assay type: in vitro ADME; conditions: dog, MDCK-MDR1, pH 7.4, MDR1-MDCK
From the text: (§1) Experiment purpose: To determine the permeability of the test compounds in MDR1-MDCK cells
(§2) Experiment operation: MDR1-MDCK cells that permanently express human P-glycoprotein were inoculated on a 96-well Insert cell plate, and cultured for 4-7 days to form confluent monolayer cells. […] In addition, the cells were lysed with the cold acetonitrile solution containing the internal standard to measure the accumulation amount of intracellular compounds. The LC/MS/MS method was used to analyze the concentrations of the compounds to be tested in all samples (including an initial dosing solution, supernatant of the donor wells, receiver solution, and cell lysate). The concentrations of the test compounds were expressed by the ratio of the peak area thereof to the peak area of the internal standard to detect the permeability of the compounds from directions of A→B and B→A.

[4] = test system: P-glycoprotein (MDR1), human; experiment: Two-way permeability evaluation in MDR1-MDCK cells; assay type: in vitro ADME; conditions: dog, MDR1-MDCK
From the text: as §1, §2

[5] = Two-way permeability evaluation in Caco-2 cells; assay type: in vitro ADME; conditions: human; for recovery at 2.5 h, 2 μM: Caco-2, pH 7.4, Caco-2
Procedure: Experiment purpose: To determine the permeability of the test compounds in Caco-2 cells
Experiment operation: Human colon cancer Caco-2 cells were inoculated on a 96-well Insert cell plate at a density of 1×10^5 cells/cm^2, and cultured for 4-5 days to form confluent monolayer cells. The test compounds was diluted with an HBSS buffer (pH 7.4) to a concentration of 2 μM, added to the top or basolateral side of the cells, and incubated at 37° C., 5% CO2 and saturated humidity for 2.5 hours, and then the sample solutions in the donor wells and receiver wells were taken and immediately mixed with a cold acetonitrile solution containing an internal standard. In addition, the cells were lysed with the cold acetonitrile solution containing the internal standard to measure the accumulation amount of intracellular compounds. The LC/MS/MS method was used to analyze the concentrations of the compounds to be tested in all samples (including an initial dosing solution, supernatant of the donor wells, receiver solution, and cell lysate). The concentrations of the test compounds were expressed by the ratio of the peak area thereof to the peak area of the internal standard to detect the permeability of the compounds from directions of A→B and B→A.

[6] = read-out: Average recovery rate A→B
[7] = read-out: Average recovery rate B→A
[8] = Caco-2, 2 μM, pH 7.4, 2.5 hours

- half-life ([1]; 0.5 mg/kg, intravenous injection 0.5 mpk, read-out: Half-life T1/2 (converted)): 42.6 min
- bioavailability ([1]; 2 mg/kg, iv 0.5 mpk, oral 2 mpk, read-out: Oral bioavailability F): 39.6%
- AUC(0-t) ([1]; 2 mg/kg, oral administration 2 mpk, read-out: Oral exposure AUC0-t): 1320 nM·h
- recovery at 2.5 h, 2 μM (P-glycoprotein (MDR1); [6]): 38%
- recovery at 2.5 h, 2 μM (P-glycoprotein (MDR1); [7]): 50%
- efflux ratio at 2.5 h, 2 μM ([4]; pH 7.4): 20.3
- Papp A→B at 2.5 h, 2 μM ([4]; 2 μM, pH 7.4, 2.5 hours): 9.1 nm/s
- Papp B→A at 2.5 h, 2 μM ([4]; 2 μM, pH 7.4, 2.5 hours): 184 nm/s
- efflux ratio at 2.5 h, 2 μM ([5]; Caco-2, pH 7.4): 198
- recovery at 2.5 h, 2 μM [5, 6]: 94.3%
- recovery at 2.5 h, 2 μM [5, 7]: 88.3%
- Papp A→B at 2.5 h, 2 μM [5, 8]: 1.7 nm/s
- Papp B→A at 2.5 h, 2 μM [5, 8]: 343 nm/s
SMILES: COc1ncc(-c2nc3c(n2C(C)C)[C@H](c2ccc(Cl)cc2)N(c2cc(Cl)cn(C)c2=O)C3=O)c(OC)n1 [NVP-HDM201]
- RTV (21 days) (MV4-11 tumor cells): 4.68 ± 0.69
- T/C (MV4-11 tumor cells; 21 days): 73.58%
- TGI (MV4-11 tumor cells; 21 days): 36.91%
- Tumor volume (Day 0) (MV4-11 tumor cells; Day 0, before administration): 153 ± 20 mm^3
- Tumor volume (Day 21) (MV4-11 tumor cells; Day 21): 695 ± 115 mm^3
- stability in mouse liver microsomes [2]: poor
- drug plasma exposure [3]: low
- half-life in mice [3]: short
